Converted amounts (≈) assume the structure as drawn.
Legend:
PI3Kγ = PI3Kγ (Homo sapiens, UniProt P48736); experiment: PI3K (human) HTRF assay, PI3Kγ; type: biochemical; conditions: ATP 10 μM, mean ± SEM
[1] = Plasma pharmacokinetics of SN32976 and stable major metabolites in mice (30 mg/kg oral); conditions: mouse plasma, 30 mg/kg SN32976 oral gavage
mTOR = mTOR (Homo sapiens, UniProt P42345); experiment: SelectScreen Z'LYTE kinase assay (Invitrogen), mTOR; type: biochemical; conditions: determined by Invitrogen, mean ± SEM, n=2
[2] = Metabolite identification in human liver microsomes; type: in vitro ADME; conditions: 10 μM SN32976, 60 min
Protocol: (§1) The reaction was quenched by mixing samples with acetonitrile and internal standard. […] Observation of parent compound and metabolites was achieved using electrospray ionization while performing a mass scan from 300-750 m/z. For observed peaks, the m/z was determined and product ion scans were carried out.

[3] = Metabolite identification in mouse liver microsomes; type: in vitro ADME; conditions: 10 μM SN32976, 60 min
Protocol: as §1

[4] = Metabolite identification in rat liver microsomes; type: in vitro ADME; conditions: 10 μM SN32976, 60 min
Protocol: as §1

[5] = Metabolite identification in dog liver microsomes; type: in vitro ADME; conditions: 10 μM SN32976, 60 min
Protocol: as §1

[6] = Metabolite identification in monkey liver microsomes; type: in vitro ADME, Cynomolgus monkey; conditions: 10 μM SN32976, 60 min
Protocol: as §1

PI3Kα [7] = target: PI3Kα (Homo sapiens, UniProt P42336); experiment: PI3K (human) HTRF assay, PI3Kα; type: biochemical
PI3Kα (Homo sapiens, UniProt P42336), sequence (P42336 whole entry): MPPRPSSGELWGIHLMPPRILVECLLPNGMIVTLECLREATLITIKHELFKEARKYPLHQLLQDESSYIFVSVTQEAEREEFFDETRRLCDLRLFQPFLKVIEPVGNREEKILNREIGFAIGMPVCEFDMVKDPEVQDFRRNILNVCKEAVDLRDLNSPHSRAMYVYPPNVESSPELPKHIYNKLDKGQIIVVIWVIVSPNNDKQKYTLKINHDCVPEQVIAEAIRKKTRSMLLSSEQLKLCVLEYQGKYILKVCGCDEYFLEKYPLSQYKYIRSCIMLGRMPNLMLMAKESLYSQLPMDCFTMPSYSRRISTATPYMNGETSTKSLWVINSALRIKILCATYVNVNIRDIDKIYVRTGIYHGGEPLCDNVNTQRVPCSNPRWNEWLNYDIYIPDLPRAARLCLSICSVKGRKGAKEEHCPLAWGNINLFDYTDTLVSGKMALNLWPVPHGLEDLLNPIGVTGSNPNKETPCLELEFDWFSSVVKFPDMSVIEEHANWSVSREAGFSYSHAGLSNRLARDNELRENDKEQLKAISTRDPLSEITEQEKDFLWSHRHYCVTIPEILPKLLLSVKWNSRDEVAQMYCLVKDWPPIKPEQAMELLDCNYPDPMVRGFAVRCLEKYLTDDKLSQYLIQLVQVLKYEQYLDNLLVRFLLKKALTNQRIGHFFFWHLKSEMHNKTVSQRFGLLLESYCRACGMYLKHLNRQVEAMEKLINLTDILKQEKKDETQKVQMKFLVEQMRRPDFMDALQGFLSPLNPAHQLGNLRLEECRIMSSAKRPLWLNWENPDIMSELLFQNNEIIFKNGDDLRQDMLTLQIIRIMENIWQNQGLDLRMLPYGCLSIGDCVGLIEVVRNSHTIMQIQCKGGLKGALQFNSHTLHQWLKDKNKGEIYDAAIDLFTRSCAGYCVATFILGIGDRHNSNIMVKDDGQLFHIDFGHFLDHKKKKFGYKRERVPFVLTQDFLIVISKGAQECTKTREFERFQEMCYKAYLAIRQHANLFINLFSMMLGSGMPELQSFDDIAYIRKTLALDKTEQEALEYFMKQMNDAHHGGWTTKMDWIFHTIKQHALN
PI3Kα (Homo sapiens, UniProt P42336), sequence (P27986 whole entry partner): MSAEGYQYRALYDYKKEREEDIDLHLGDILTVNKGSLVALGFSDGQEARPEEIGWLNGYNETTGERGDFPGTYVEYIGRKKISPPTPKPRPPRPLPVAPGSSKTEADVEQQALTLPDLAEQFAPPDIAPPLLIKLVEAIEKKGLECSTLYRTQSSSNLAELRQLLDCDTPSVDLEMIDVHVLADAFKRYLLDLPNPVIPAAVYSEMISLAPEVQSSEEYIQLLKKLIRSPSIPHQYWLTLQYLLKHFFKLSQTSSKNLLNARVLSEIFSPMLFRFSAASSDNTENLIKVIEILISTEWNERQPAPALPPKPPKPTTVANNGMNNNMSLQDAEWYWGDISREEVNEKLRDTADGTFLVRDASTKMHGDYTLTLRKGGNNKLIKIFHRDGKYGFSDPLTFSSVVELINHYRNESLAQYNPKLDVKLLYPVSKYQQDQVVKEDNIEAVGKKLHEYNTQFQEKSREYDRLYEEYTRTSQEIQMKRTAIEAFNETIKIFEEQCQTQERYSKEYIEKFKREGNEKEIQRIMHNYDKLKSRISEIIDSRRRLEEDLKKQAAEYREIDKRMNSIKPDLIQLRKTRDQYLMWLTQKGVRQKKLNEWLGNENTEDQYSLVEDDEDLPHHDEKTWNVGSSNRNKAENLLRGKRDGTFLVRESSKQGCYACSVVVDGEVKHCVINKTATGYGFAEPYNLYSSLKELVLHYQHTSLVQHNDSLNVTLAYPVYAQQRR

PI3Kβ = PI3Kβ (Homo sapiens, UniProt P42338); experiment: PI3K (human) HTRF assay, PI3Kβ; type: biochemical; conditions: ATP 10 μM, mean ± SEM
PI3Kβ, sequence (P42338 whole entry): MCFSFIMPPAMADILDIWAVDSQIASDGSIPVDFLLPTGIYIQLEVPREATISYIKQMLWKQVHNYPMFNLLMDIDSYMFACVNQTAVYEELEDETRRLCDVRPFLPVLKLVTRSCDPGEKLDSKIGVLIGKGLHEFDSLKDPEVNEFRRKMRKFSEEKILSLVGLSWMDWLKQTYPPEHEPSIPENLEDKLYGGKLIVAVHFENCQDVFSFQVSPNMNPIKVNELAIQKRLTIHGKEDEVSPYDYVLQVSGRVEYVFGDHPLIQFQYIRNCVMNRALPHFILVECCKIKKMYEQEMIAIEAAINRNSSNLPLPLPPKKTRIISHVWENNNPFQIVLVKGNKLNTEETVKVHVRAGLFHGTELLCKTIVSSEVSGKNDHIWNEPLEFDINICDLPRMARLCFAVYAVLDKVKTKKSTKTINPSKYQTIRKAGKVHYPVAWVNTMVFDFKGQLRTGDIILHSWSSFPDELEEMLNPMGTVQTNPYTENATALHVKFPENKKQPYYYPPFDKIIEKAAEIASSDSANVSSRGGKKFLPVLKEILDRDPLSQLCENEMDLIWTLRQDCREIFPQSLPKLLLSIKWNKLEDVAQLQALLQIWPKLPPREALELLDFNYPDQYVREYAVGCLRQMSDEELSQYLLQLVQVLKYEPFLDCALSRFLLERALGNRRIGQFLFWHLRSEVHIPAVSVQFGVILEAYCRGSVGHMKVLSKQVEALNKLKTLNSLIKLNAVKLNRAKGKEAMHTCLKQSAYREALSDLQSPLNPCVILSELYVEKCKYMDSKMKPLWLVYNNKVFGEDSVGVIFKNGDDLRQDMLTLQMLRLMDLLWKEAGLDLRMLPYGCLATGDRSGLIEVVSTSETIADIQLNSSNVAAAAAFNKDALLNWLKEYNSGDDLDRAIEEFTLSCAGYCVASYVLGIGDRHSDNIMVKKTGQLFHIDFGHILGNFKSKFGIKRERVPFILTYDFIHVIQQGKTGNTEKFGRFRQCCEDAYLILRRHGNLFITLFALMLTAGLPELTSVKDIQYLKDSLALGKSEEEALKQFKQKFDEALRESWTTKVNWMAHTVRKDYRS
PI3Kβ, sequence (P27986 whole entry partner): as the sequence (P27986 whole entry partner) above

PI3Kδ = PI3Kδ (Homo sapiens, UniProt O00329); experiment: PI3K (human) HTRF assay, PI3Kδ; type: biochemical; conditions: ATP 10 μM, mean ± SEM
[8] = Tumor and plasma concentrations of SN32976 and major metabolites in mice with U-87 MG tumors after multiple doses; conditions: multiple doses of 100 mg/kg SN32976
PIK3C2B = target: T1, PIK3C2B (Homo sapiens, UniProt O00750); experiment: KINOMEscan, PIK3C2B; type: binding; conditions: 10 μM
T1 construct: purchased Ambit Biosciences (scanMAXX KINOMEscan)

PIK3C2G = target: T2, PIK3C2G (Homo sapiens, UniProt O75747); experiment: KINOMEscan, PIK3C2G; type: binding; conditions: 10 μM
T2 construct: purchased Ambit Biosciences (scanMAXX KINOMEscan)
T2 sequence (O75747 1-1486): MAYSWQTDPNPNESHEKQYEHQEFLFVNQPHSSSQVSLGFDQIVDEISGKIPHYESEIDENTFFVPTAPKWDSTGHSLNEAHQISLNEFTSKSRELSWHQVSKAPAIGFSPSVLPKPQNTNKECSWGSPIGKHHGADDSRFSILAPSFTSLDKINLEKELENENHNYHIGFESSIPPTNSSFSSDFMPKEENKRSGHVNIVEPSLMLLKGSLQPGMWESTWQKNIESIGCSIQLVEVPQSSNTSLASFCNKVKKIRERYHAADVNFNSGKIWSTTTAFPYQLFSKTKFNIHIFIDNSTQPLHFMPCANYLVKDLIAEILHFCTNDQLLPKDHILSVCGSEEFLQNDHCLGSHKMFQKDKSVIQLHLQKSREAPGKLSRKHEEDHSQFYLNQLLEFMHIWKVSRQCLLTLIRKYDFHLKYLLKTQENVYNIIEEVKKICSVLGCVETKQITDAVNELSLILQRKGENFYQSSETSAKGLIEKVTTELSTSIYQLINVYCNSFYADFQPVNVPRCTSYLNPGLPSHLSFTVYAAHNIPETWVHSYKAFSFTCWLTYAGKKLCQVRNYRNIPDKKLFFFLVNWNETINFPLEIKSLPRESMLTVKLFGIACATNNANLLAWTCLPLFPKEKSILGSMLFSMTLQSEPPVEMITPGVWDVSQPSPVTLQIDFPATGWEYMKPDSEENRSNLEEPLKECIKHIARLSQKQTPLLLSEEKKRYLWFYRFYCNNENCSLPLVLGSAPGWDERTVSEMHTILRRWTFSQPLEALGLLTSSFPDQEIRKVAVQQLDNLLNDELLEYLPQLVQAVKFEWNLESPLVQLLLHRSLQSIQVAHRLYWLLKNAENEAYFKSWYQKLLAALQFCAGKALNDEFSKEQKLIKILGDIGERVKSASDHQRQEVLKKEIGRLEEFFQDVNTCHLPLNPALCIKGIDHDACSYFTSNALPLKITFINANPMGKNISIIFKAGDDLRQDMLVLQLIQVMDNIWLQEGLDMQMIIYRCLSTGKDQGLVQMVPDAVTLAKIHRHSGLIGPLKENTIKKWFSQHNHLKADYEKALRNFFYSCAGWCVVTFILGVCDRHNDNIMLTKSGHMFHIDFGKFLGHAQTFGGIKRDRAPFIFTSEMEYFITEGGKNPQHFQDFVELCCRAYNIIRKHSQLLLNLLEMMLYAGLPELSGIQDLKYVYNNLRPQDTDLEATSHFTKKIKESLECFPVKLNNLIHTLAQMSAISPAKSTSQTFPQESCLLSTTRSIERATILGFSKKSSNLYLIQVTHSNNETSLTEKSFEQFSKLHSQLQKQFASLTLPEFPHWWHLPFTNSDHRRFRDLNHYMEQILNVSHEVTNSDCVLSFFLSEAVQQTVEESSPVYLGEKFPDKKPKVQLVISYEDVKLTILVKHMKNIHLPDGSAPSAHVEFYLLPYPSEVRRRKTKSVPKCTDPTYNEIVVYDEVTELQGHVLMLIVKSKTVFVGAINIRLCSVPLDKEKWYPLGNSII

[9] = Solubility in potassium phosphate buffer; type: physicochemical; conditions: aqueous buffer, thermodynamic from solid
CYP1A2 [10] = target: T3, CYP1A2 (Homo sapiens, UniProt P05177); experiment: Cytochrome P450 inhibition in human liver microsomes, CYP1A2; type: in vitro ADME; conditions: read-out: CYP inhibition 1A2 IC50
T3 construct: was evaluated in human liver microsomes incubated with SN32976; tissue Cyprotex (contract research organization); host or cells: human liver microsomes

CYP2C9 = target: T4, CYP2C9 (Homo sapiens, UniProt P11712); experiment: Cytochrome P450 inhibition in human liver microsomes, CYP2C9; type: in vitro ADME; conditions: mean ± SD, read-out: CYP inhibition 2C9 IC50
T4 construct: was evaluated in human liver microsomes incubated with SN32976; tissue Cyprotex (contract research organization); host or cells: human liver microsomes
T4 sequence (P11712 whole entry): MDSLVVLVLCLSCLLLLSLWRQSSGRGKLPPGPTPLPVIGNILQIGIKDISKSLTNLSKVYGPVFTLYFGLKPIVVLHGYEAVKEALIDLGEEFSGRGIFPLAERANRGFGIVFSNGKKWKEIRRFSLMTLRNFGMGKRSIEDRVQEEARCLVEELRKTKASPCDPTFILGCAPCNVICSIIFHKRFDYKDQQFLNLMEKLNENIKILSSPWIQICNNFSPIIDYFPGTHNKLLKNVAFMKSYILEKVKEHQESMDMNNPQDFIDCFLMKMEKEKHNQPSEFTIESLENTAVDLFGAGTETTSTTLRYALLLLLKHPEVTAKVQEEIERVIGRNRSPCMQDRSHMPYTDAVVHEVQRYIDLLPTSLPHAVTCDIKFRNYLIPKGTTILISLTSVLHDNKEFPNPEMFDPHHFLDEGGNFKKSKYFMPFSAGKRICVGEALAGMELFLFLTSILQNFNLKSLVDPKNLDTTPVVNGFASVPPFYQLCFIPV

CYP2C19 = target: T5, CYP2C19 (Homo sapiens, UniProt P33261); experiment: Cytochrome P450 inhibition in human liver microsomes, CYP2C19; type: in vitro ADME; conditions: read-out: CYP inhibition 2C19 IC50
T5 construct: was evaluated in human liver microsomes incubated with SN32976; tissue Cyprotex (contract research organization); host or cells: human liver microsomes

CYP2D6 = target: T6, CYP2D6 (Homo sapiens, UniProt P10635); experiment: Cytochrome P450 inhibition in human liver microsomes, CYP2D6; type: in vitro ADME; conditions: read-out: CYP inhibition 2D6 IC50
T6 construct: was evaluated in human liver microsomes incubated with SN32976; tissue Cyprotex (contract research organization); host or cells: human liver microsomes
T6 sequence (P10635 whole entry): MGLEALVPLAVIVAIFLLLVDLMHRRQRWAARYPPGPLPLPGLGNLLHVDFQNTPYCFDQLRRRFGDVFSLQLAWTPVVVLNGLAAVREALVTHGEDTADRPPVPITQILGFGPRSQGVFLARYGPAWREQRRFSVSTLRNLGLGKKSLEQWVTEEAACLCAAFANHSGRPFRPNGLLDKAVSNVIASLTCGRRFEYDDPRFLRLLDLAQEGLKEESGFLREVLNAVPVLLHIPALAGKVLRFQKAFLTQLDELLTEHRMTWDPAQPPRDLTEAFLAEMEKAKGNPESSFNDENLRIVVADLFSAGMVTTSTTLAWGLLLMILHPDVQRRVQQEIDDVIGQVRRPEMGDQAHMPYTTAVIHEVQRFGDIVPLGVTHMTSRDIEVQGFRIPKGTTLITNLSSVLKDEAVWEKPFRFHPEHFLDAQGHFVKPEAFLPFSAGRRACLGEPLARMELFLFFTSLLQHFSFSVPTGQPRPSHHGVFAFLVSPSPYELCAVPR

CYP3A4 [11] = target: T7, CYP3A4 (Homo sapiens, UniProt P08684); experiment: Cytochrome P450 inhibition in human liver microsomes, CYP3A4; type: in vitro ADME; conditions: read-out: CYP inhibition 3A4 IC50
T7 construct: was evaluated in human liver microsomes incubated with SN32976; tissue Cyprotex (contract research organization); host or cells: human liver microsomes

CYP1A2 [12] = experiment: Cytochrome P450 induction in cultured hepatocytes (mRNA, qRT-PCR), CYP1A2; type: in vitro ADME; conditions: at 10 μM, hepatocytes 72 h, mean ± SD
CYP2B6 = experiment: Cytochrome P450 induction in cultured hepatocytes (mRNA, qRT-PCR), CYP2B6; type: in vitro ADME; conditions: at 10 μM, hepatocytes 72 h, mean ± SD
CYP3A4 [13] = experiment: Cytochrome P450 induction in cultured hepatocytes (mRNA, qRT-PCR), CYP3A4; type: in vitro ADME; conditions: at 10 μM, hepatocytes 72 h, mean ± SD
[14] = Plasma pharmacokinetics in mice; conditions: male, CD1, mouse, po, 20 mg/kg
[15] = Plasma pharmacokinetics in rats; conditions: male, Sprague-Dawley, rat, po, 10 mg/kg
[16] = Plasma pharmacokinetics in dogs; conditions: male, Beagle, dog, po, 10 mg/kg
[17] = Rat dose proportionality study (oral); conditions: male, Sprague-Dawley, plasma
PI3Kα [18] = tested on: PI3Kα; parameters: method as in PMID 23726034, PMID 23275335; conditions: cited from earlier work

PI3Kγ, sequence (P48736 whole entry): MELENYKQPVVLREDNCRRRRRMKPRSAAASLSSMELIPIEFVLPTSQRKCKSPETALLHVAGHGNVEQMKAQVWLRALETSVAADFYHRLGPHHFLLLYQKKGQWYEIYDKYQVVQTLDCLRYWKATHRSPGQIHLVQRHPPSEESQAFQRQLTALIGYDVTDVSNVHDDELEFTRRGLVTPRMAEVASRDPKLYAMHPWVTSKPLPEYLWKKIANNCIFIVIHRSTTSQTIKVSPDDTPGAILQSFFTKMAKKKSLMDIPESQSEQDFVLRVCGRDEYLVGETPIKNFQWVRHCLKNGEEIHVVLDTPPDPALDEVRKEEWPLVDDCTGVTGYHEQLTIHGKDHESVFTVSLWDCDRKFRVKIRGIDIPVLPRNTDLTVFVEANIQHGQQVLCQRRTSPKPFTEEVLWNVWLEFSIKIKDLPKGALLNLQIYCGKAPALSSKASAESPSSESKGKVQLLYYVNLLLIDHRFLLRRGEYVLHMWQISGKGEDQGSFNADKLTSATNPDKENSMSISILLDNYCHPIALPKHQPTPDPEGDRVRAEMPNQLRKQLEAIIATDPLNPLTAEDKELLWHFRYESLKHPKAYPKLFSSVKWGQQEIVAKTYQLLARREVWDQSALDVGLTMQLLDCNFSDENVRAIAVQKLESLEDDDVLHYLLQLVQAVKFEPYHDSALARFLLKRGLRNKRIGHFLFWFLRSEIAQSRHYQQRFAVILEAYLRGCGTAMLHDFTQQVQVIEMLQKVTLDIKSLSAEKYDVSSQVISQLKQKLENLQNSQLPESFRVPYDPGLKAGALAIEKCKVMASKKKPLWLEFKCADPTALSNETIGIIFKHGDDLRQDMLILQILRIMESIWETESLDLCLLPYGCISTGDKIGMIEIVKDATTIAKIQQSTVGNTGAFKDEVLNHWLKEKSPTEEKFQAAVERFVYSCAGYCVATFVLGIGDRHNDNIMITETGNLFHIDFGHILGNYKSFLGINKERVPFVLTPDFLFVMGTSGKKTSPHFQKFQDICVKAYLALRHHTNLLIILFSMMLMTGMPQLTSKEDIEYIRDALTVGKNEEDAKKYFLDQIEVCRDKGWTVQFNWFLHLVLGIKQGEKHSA

In the case of `COc1cccc2c1nc(C(F)F)n2-c1nc(N2CCOCC2)nc(N2CCN(S(=O)(=O)CCN)CC2)n1` [M8], the IC50 (PI3Kγ) is reported as 68 ± 18.6 nM and the “contribution to combined plasma AUC” value [1] is reported as 0.13%.
With `CNCCS(=O)(=O)N1CCN(c2nc(N3CCOCC3)nc(-n3c(C(F)F)nc4c(OC)cccc43)n2)CC1` [M9] the IC50 (PI3Kγ) was 90.3 ± 17.1 nM, the IC50 (mTOR) was 244 ± 56 nM and the “contribution to combined plasma AUC” value [1] was 27.1%.
With `COc1cccc2c1nc(C(F)F)n2-c1nc(N2CCOCC2)nc(N2CCN(S(=O)(=O)CC[N+](C)(C)[O-])CC2)n1` [M10] the “metabolite quantity in liver microsomes (relative peak area class)” value [2] was “trace (trace (<1% relative peak areas in the total ion chromatograph))”, the “metabolite quantity in liver microsomes (relative peak area class)” value [3] was “major (major (>10% relative peak areas))” and the “metabolite quantity in liver microsomes (relative peak area class)” value [4] was “major (major (>10% relative peak areas))”. For the same compound, the “metabolite quantity in liver microsomes (relative peak area class)” value [5] was “minor (minor (1-10% relative peak areas))” and the “metabolite quantity in liver microsomes (relative peak area class)” value [6] was “minor (minor (1-10% relative peak areas))”.
In the case of `C=CS(=O)(=O)N1CCN(c2nc(N3CCOCC3)nc(-n3c(C(F)F)nc4c(OC)cccc43)n2)CC1` [M17], the IC50 (PI3Kα [7]; HTRF assay, ATP 10 μM, mean ± SEM) is reported as 6.2 ± 0.5 nM, the “selectivity for PI3Kα over all other PI3K isoforms and mTOR” value (PI3Kα [7]; ratio of biochemical IC50) is reported as 4.2 fold and the IC50 (PI3Kβ) is reported as over 1000 nM. The “IC50 PI3Kβ” value (PI3Kβ) was “lacked activity”, the IC50 (PI3Kγ) was 26.3 ± 2.6 nM and the IC50 (PI3Kδ) was 55 ± 24.1 nM. For the same compound, the IC50 (mTOR) was 74.9 ± 25.1 nM, the “metabolite quantity in liver microsomes (relative peak area class)” value [2] was “major (major (>10% relative peak areas))” and the “metabolite quantity in liver microsomes (relative peak area class)” value [3] was “major (major (>10% relative peak areas))”. For the same compound, the “metabolite quantity in liver microsomes (relative peak area class)” value [4] was “major (major (>10% relative peak areas))”, the “metabolite quantity in liver microsomes (relative peak area class)” value [5] was “major (major (>10% relative peak areas))” and the “metabolite quantity in liver microsomes (relative peak area class)” value [6] was “major (major (>10% relative peak areas))”. For the same compound, the “contribution to combined plasma AUC” value [1] was 1.0%, the “metabolite AUC relative to parent in plasma” value [8] was 8.8 % of parent and the “metabolite AUC relative to parent in tumor” value [8] was 2.4 % of parent.
With `COc1cccc2c1nc(C(F)F)n2-c1nc(N2CCOCC2)nc(N2CCN(S(=O)(=O)CCN(C)C)CC2)n1` [SN32976, 2-((4-(4-(2-(difluoromethyl)-4-methoxy-1H-benzo[d]imidazol-1-yl)-6-morpholino-1,3,5-triazin-2-yl)piperazin-1-yl)sulfonyl)-N, N-dimethylethan-1-amine] the IC50 (PI3Kγ) was 110 ± 41 nM, the IC50 (mTOR) was 194 ± 55 nM and the “off-target activity against PIK3C2B” value (PIK3C2B) was “off-target activity”. For the same compound, the “off-target activity against PIK3C2G” value (PIK3C2G) was “off-target activity”, the solubility ([9]; pH 2.0) was over 100000 µM and the solubility ([9]; pH 7.4, mean ± SD) was 11.2 µM (≈ 6.51 µg/mL). The IC50 (CYP1A2 [10]) was over 25000 nM, the IC50 (CYP2C9) was 20000 nM and the IC50 (CYP2C19) was over 25000 nM. The IC50 (CYP2D6) was over 25000 nM, the IC50 (CYP3A4 [11]) was over 25000 nM and the “CYP induction 1A2” value (CYP1A2 [12]) was 1.27 ± 0.01. The “CYP induction 2B6” value (CYP2B6) was 0.31 ± 0.01, the “CYP induction 3A4” value (CYP3A4 [13]) was 1.39 ± 0.21 and the AUC [14] was 2.5 µM·h. For the same compound, the bioavailability [14] was 33.4%, the AUC [15] was 0.579 µM·h and the bioavailability [15] was 8.1%. The AUC [16] was 3.22 µM·h, the bioavailability [16] was 35.9% and the AUC ([17]; 10 mg/kg) was 0.417 µM·h. For the same compound, the Cmax ([17]; 10 mg/kg) was 34.1 nM, the Tmax ([17]; 10 mg/kg) was 4 h and the half-life ([17]; 10 mg/kg) was 2.27 h. The AUC ([17]; 30 mg/kg) was 1.07 µM·h, the Cmax ([17]; 30 mg/kg) was 125 nM and the Tmax ([17]; 30 mg/kg) was 1 h. The half-life ([17]; 30 mg/kg) was 4.62 h, the AUC ([17]; 100 mg/kg) was 16.4 µM·h and the Cmax ([17]; 100 mg/kg) was 893 nM. It also gave a Tmax ([17]; 100 mg/kg) of 1 h, a half-life ([17]; 100 mg/kg) of 9.77 h and an AUC ([17]; 300 mg/kg) of 139 µM·h. For the same compound, the Cmax ([17]; 300 mg/kg) was 6810 nM, the Tmax ([17]; 300 mg/kg) was 4 h and the “contribution to combined plasma AUC” value [1] was 71.8%.
For `Cc1nc(NC(=O)N2CCC[C@H]2C(N)=O)sc1-c1ccnc(C(C)(C)C(F)(F)F)c1` [alpelisib], the “selectivity for PI3Kα over other class I PI3K isoforms and mTOR” value (PI3Kα [18]) is given as over 50 fold.
For `Nc1nc2cc(-c3ccc4ncc(C(=O)N5CCOCC5)n4c3)ccc2o1` [serabelisib], the “selectivity for PI3Kα over other class I PI3K isoforms and mTOR” value (PI3Kα [18]) is given as over 50 fold.
